This is an account of results in patent EP2450458B1, “Novel microorganisms producing a thermostable lipase and their use” (Universiti Putra Malaysia (UPM), priority 2010, dated 2012).

Where “and” joins values, the source holds several entries; their conditions need not be identical. Equal entries are not always repeated.

For series [1], the system named is purified recombinant ARM thermostable lipase. Kind of series: Lipase organic solvent-stability. Format: biochemical, Geobacillus sp. strain ARM. The note with it: solvent 30% v/v, 30 min at 30°C, 150 rpm; assay at 65°C. How it is done: Aliquots of the enzyme were incubated with the solvents (30%, v/v) for 30 min at 30°C with shaking at 150 rpm. […] The stability was expressed as the remaining lipolytic activity relative to that of the control (without solvent). The relative activity was measured at 65°C as described before.

For series [2] the following is noted: values in parenthesis used to select the solvents; cited from earlier work.
The subject of series [3] is purified recombinant ARM thermostable lipase. Kind of series: Effect of metal ions on lipase activity. To be noted: pre-incubation 30 min at 30°C, assay at 65°C. Type of series: biochemical, Geobacillus sp. strain ARM. The method, then: To determine the effects of metal ions on the lipase activity, the purified enzyme was pre-incubated for 30 min at 30°C with various metal ions. Two concentrations (1 and 5 mM) of each of the following ions were used: CO^2+, CU^2+, Mg^2+, Ni^2+, Mn^2+, Zn^2+ Fe^2+, Ca^2+, Sr^2+, K^+, Na^+, Rb^+ and Ag^+. All salts were dissolved in MOPS buffer (50 mM, pH 8.0) (Aslamkhan et al., 2002). The control contained no ion. The relative activity was measured at 65°C using olive oil (emulsified, 1:1 v/v, in 50 mM Tris-HCl buffer, pH 8.0) as substrate. Metal cations play different and important roles in influencing the structure and function of lipases (Gupta et al.., 2004a; Kim et al., 2005). The effect of different metal ions on the purified ARM lipase activity was studied (Figure 29). […] The Ca^2+-binding motif was not found in ARM lipase sequence.

The test system is the same in series [4]. Briefly: Effect of inhibitors on lipase activity. Type of series: biochemical, Geobacillus sp. strain ARM. The note with it: pre-incubation 30 min at 30°C, assay at 65°C. The method, then:
The control contained no inhibitor. The relative activity was measured at 65°C using olive oil (emulsified, 1:1 v/v, in 50 mM Tris-HCl buffer, pH 8.0) as substrate.

Series [5] shares this test system. Kind of series: Effect of surfactants on lipase activity. Type of series: biochemical, Geobacillus sp. strain ARM. The note with it: pre-incubation 30 min at 30°C, assay at 65°C. The method, then:
The effect of surfactants on the lipase activity was investigated by pre-incubating the purified enzyme for 30 min at 30°C in Tris-HCl buffer (50 mM, pH 8.0) containing 0.1 and 1% (v/v) of following surfactants (nonionic surfactants): Tween 20, Tween 40, Tween 80, Tween 85, Triton X-100, Triton B1958, Span 20. In the case of SDS (ionic surfactant) concentrations were 1 and 5 mM. The control contained no surfactant. The relative activity was measured at 65°C using olive oil (emulsified, 1:1 v/v, in 50 mM Tris-HCl buffer, pH 8.0) as substrate. The effects of various surfactants on the purified ARM lipase are depicted in Figure 30.

Series [6] has the same test system. Kind of series: Effect of ionic liquids on lipase hydrolytic activity. Type of series: biochemical, Geobacillus sp. strain ARM. The note with it: 90% (v/v) ionic liquid, 0 min, without incubation; assay at 65°C. How it is done:
(§1) Aliquots of the enzyme were suspended in 90% (v/v) of four different ionic liquids (ILs) properly. Then, the mixture of lipase and ILs was incubated for 0-90 min at 60°C with shaking at 150 rpm. The selected ILs were [Emim][BF4], [Emim][TfO], [Bmim][BF4] and […]. The thermostability was expressed as the remaining lipolytic activity relative to that of the control (without ILs) after incubation at high temperature. The residual activity was measured at 65°C as described before.

Series [7] shares this test system. Briefly: Effect of ionic liquids on lipase thermostability at 60°C. Type of series: biochemical, Geobacillus sp. strain ARM. The note with it: 90% (v/v) ionic liquid, 0-90 min at 60°C, 150 rpm; assay at 65°C. The method, then: as §1

On to 1-butanol, for which, in series [1], the “effect on lipase activity/stability” value was “dramatically inhibited”.
On to 1-propanol, for which the “effect on lipase activity/stability” value in series [1] is listed as “dramatically inhibited”.
On to `CCCCCCCCCCO` [1-decanol], for which the “remaining lipolytic activity relative to the control (without solvent)” value in series [1] was found to be 86%.
`CCCCCCCCCCCCO` [1-dodecanol]: the “remaining lipolytic activity relative to the control (without solvent)” value in series [1] is on record as “more than 100%”. Moreover, in series [2], the lipophilicity (log P) is 5.
Consider `CCCCCCCCCCCCCCCC` [1-hexadecane], for which the “remaining lipolytic activity relative to the control (without solvent)” value in series [1] stood at 78%.
Consider `CCCCCCCCO` [1-octanol], for which the “remaining lipolytic activity relative to the control (without solvent)” value in series [1] is “more than 100%”. Moreover, the log partition coefficient (log P) in series [2] is given as 2.9.
Regarding `CCCCCCCCCCCO` [1-undecanol], the “remaining lipolytic activity relative to the control (without solvent)” value in series [1] amounted to 74%. In addition, the log partition coefficient (log P) in series [2] was 4.6.
Turning to `CC(O)C(C)O` (stereo not shown) [2,3-butanediol], in series [2], the log partition coefficient (log P) is on record as -0.92.
Regarding `CC(C)O` [2-propanol], in series [1], the “effect on lipase activity/stability” value is “dramatically inhibited”.
In the case of `[Ca+2]` [Ca^2+], the “effect on lipase activity” value in series [3] (1 and 5 mM ion) is on record as “stimulated the lipase activity”.
For `C[S+](C)[O-]` [DMSO], the “remaining lipolytic activity relative to the control (without solvent)” value in series [1] was 62.5% and 62.4%.
As for `O=C(O)CN(CCN(CC(=O)O)CC(=O)O)CC(=O)O` [EDTA, ethylene diamine tetra-acetic acid], the “activation of the lipase” value in series [4] (1 mM) is recorded as “around 20%”; in series [4] (5 mM), “more than 60%”.
`CCCCCCCCCCCCOS(=O)(=O)[O-].[Na+]` [SDS]: the “effect on lipase activity” value in series [5] (1 and 5 mM (ionic surfactant)) is listed as “strongly inhibited”.
`[Sr+2]` [Sr^2+]: in series [3] (1 mM ion), the “effect on lipase activity” value was “stimulated the lipase activity”.
For `CCCCn1cc[n+](C)c1.F[B-](F)(F)F` [[Bmim][BF4]], the “effect on lipase activity” value in series [6] is “decreased lipase activity”.
For the compound `CCCCn1cc[n+](C)c1.F[P-](F)(F)(F)(F)F` [[Bmim][PH6]], in series [6], the “lipase activity relative to the control (without ILs)” value is recorded as “up to 120%”.
On to `CCn1cc[n+](C)c1.F[B-](F)(F)F` [[Emim][BF4]], for which, in series [6], the “effect on lipase activity” value is listed as “no significant effect”. Also, the “effect on lipase thermostability” value in series [7] is recorded as “significant effects on lipase thermostability enhancement”.
In the case of `CCn1cc[n+](C)c1.O=S(=O)([O-])C(F)(F)F` [[Emim][TfO]], the “lipase activity relative to the control (without ILs)” value in series [6] is on record as “up to 120%”. In series [7], the “effect on lipase thermostability” value is “significant effects on lipase thermostability enhancement”.
With `CC(C)=O` [acetone], the “effect on lipase activity/stability” value in series [1] is reported as “dramatically inhibited”. For the same compound, the lipophilicity (log P) in series [2] is on record as -0.208.
In the case of `CC#N` [acetonitrile], the “effect on lipase activity/stability” value in series [1] is on record as “dramatically inhibited”. Moreover, the “log P” value in series [2] was -0.394.
With `c1ccccc1` [benzene], the “remaining lipolytic activity relative to the control (without solvent)” value in series [1] was “more than 100%”.
As to `OCc1ccccc1` [bnzyl alcohol], the “effect on lipase activity/stability” value in series [1] is given as “dramatically inhibited”.
As for `CCc1ccccc1` [ethylbenzene], the “remaining lipolytic activity relative to the control (without solvent)” value in series [1] was determined as 77%. The log partition coefficient (log P) in series [2] is 3.3.
As for `CCCCCCCCCCCCCCCCC` [heptadecane], in series [1], the “remaining lipolytic activity relative to the control (without solvent)” value is reported as “more than 100%”. For the same compound, the “log P” value in series [2] is 8.69.
On to `CCCCCCC` [heptan], for which the “remaining lipolytic activity relative to the control (without solvent)” value in series [1] was “more than 100%”. Also, the “log P” value in series [2] is listed as 4.4.
As for `CC(C)CCO` [iso-amyl alcohol], the “effect on lipase activity/stability” value in series [1] was “dramatically inhibited”. For the same compound, the “log P” value in series [2] is on record as 1.3.
Consider `CC(C)CO` [iso-butanol], for which, in series [1], the “effect on lipase activity/stability” value is reported as “dramatically inhibited”. Moreover, in series [2], the “log P” value is listed as 0.79.
For `CC(C)CC(C)(C)C` [iso-octane], the “remaining lipolytic activity relative to the control (without solvent)” value in series [1] is “more than 100%”. Moreover, the log partition coefficient (log P) in series [2] is on record as 4.5.
In the case of `CCCCCCCCCCCCCCC` [n-pentadecane], in series [1], the “remaining lipolytic activity relative to the control (without solvent)” value is “more than 100%”. In series [2], the log partition coefficient (log P) is reported as 7.71.
Turning to `CCCCCCCCCCCCCC` [n-tetradecane], in series [1], the “remaining lipolytic activity relative to the control (without solvent)” value is given as “more than 100%”. In addition, the log partition coefficient (log P) in series [2] is 7.
In the case of `Cc1ccccc1C` [o-xylene], the “remaining lipolytic activity relative to the control (without solvent)” value in series [1] is “more than 100%”.
The same measure, in the same setting: then `Cc1ccccc1` [toluene], with “more than 100%”.
For the compound Span 20, the “effect on lipase activity” value in series [5] (0.1 and 1% (v/v) surfactant) is on record as “not affected”.
For the compound Triton X-100, in series [5] (1% surfactant), the “increase in lipase activity” value is 20%.
Take hexanes: in series [1], the “remaining lipolytic activity relative to the control (without solvent)” value is recorded as “more than 100%”. The “log P” value in series [2] is listed as 3.6.

As usually defined, the log P is the decadic logarithm of the partition coefficient of the neutral form, usually between octanol and water.
